Reference: US20250059182A1, “SOS1 INHIBITORS” (Mirati Therapeutics, Inc., priority 2021, published 2025)

Assays:
[1] = molecular target: T1, recombinant human SOS1 polypeptide (amino acids 560-1049) (Homo sapiens, UniProt Q07889); experiment: HTRF displacement assay: inhibition of labeled tracer binding to SOS1; conditions: Table A, Morrison equation for competitive binding
T1 construct: corresponding to amino acids 560-1049, expressed in E. Coli; made in house; host or cells: E. coli
T1 sequence (Q07889 560-1049): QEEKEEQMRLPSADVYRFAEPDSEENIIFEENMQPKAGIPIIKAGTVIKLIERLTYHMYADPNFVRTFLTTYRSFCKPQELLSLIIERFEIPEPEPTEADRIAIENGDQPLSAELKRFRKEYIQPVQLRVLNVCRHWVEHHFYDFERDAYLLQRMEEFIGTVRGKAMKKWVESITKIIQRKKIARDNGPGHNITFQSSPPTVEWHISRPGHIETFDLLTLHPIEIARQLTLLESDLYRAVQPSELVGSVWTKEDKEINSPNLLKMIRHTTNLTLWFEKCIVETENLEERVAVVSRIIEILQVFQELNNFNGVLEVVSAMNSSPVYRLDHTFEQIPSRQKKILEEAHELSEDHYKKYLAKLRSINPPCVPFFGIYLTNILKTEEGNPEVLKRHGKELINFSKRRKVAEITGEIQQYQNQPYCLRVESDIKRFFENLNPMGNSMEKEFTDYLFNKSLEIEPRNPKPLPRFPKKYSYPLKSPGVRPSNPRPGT

pERK in MKN1 cells = experiment: pERK inhibition, In-Cell Western (LI-COR Odyssey), MKN1 cells; type: cell-based; conditions: Homo sapiens, MKN-1, Table B; MKN1 or H358 cells (table does not say which); 0.5-1 hour incubation; read-out: IC50 (nM), pERK inhibition
Summary of the method: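 IC50 was fitted from % pERK inhibition, calculated as the GAPDH-normalised pERK signal of each well divided by the vehicle mean. Signal was imaged at 700 and 800 nm after fixation, methanol permeabilisation and dual antibody staining. Before fixation, MKN1 cells had received compound for about 0.5–1 h at 37 °C, top concentration 10 µM, nine 3-fold dilutions.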

| SMILES | Ki [1] [nM] | IC50 (pERK in MKN1 cells) [nM] |
| --- | --- | --- |
| Cc1nnc(N[C@H](C)c2cccc(C(F)(F)F)c2F)c2cc(N3CCC4(CN(C)C4)C3)ncc12 [Example 1-26, (R)-N-(1-(2-fluoro-3-(trifluoromethyl)phenyl)ethyl)-4-methyl-7-(2-methyl-2,6-diazaspiro[3.4]octan-6-yl)pyrido[3,4-d]pyridazin-1-amine] | 0.348 | 30.8 |
| CCN1CC2(C1)CN(c1cc3c(N[C@H](C)c4cccc(C(F)(F)F)c4F)nnc(C)c3cn1)C2 [Example 1-27, (R)-7-(6-ethyl-2,6-diazaspiro[3.3]heptan-2-yl)-N-(1-(2-fluoro-3-(trifluoromethyl)phenyl)ethyl)-4-methylpyrido[3,4-d]pyridazin-1-amine] | 0.27 | 18.6 |
| Cc1c([C@@H](C)Nc2nnc(C)c3cnc(N4CC5(CN(C)C5)C4)cc23)cccc1C(F)(F)F [Example 1-32, (R)-4-methyl-N-(1-(2-methyl-3-(trifluoromethyl)phenyl)ethyl)-7-(6-methyl-2,6-diazaspiro[3.3]heptan-2-yl)pyrido[3,4-d]pyridazin-1-amine] | 0.163 | 32.3 |
| Cc1c(C#N)cccc1[C@@H](C)Nc1nnc(C)c2cnc(N3CCN(C4CC4)CC3)cc12 [Example 1-33, (R)-3-(1-((7-(4-cyclopropylpiperazin-1-yl)-4-methylpyrido[3,4-d]pyridazin-1-yl)amino)ethyl)-2-methylbenzonitrile] | 1.87 | 87.8 |
| Cc1c(C#N)cccc1[C@@H](C)Nc1nnc(C)c2cnc(N3C[C@@H]4C[C@H]3CN4C)cc12 [Example 1-34, 2-methyl-3-((R)-1-((4-methyl-7-((1S,4S)-5-methyl-2,5-diazabicyclo[2.2.1]heptan-2-yl)pyrido[3,4-d]pyridazin-1-yl)amino)ethyl)benzonitrile] | 2.25 | 49.2 |
| Cc1c(C#N)cccc1[C@@H](C)Nc1nnc(C)c2cnc(N3C[C@H]4C[C@@H]3CN4C)cc12 [Example 1-35, 2-methyl-3-((R)-1-((4-methyl-7-((1R,4R)-5-methyl-2,5-diazabicyclo[2.2.1]heptan-2-yl)pyrido[3,4-d]pyridazin-1-yl)amino)ethyl)benzonitrile] | 1.19 | 18.4 |
| CCN1C[C@@H]2C[C@H]1CN2c1cc2c(N[C@H](C)c3cccc(C#N)c3C)nnc(C)c2cn1 [Example 1-36, 3-((R)-1-((7-((1S,4S)-5-ethyl-2,5-diazabicyclo[2.2.1]heptan-2-yl)-4-methylpyrido[3,4-d]pyridazin-1-yl)amino)ethyl)-2-methylbenzonitrile] | 3.43 | 75.5 |
| CCN1C[C@H]2C[C@@H]1CN2c1cc2c(N[C@H](C)c3cccc(C#N)c3C)nnc(C)c2cn1 [Example 1-37, 3-((R)-1-((7-((1R,4R)-5-ethyl-2,5-diazabicyclo[2.2.1]heptan-2-yl)-4-methylpyrido[3,4-d]pyridazin-1-yl)amino)ethyl)-2-methylbenzonitrile] | 1.61 | 19.7 |
| CCN1CC[C@H](Nc2cc3c(N[C@H](C)c4cccc(C#N)c4C)nnc(C)c3cn2)C1 [Example 1-38, 3-((R)-1-((7-(((S)-1-ethylpyrrolidin-3-yl)amino)-4-methylpyrido[3,4-d]pyridazin-1-yl)amino)ethyl)-2-methylbenzonitrile] | 5.6 | 221 |
| CCN1CC[C@@H](Nc2cc3c(N[C@H](C)c4cccc(C#N)c4C)nnc(C)c3cn2)C1 [Example 1-39, 3-((R)-1-((7-(((R)-1-ethylpyrrolidin-3-yl)amino)-4-methylpyrido[3,4-d]pyridazin-1-yl)amino)ethyl)-2-methylbenzonitrile] | 4 | 126 |
| Cc1c(C#N)cccc1[C@@H](C)Nc1nnc(C)c2cnc(N(C)C3CCN(C)CC3)cc12 [Example 1-40, (R)-2-methyl-3-(1-((4-methyl-7-(methyl(1-methylpiperidin-4-yl)amino)pyrido[3,4-d]pyridazin-1-yl)amino)ethyl)benzonitrile] | 0.805 | 45.4 |
| Cc1c(C#N)cccc1[C@@H](C)Nc1nnc(C)c2cnc(NC3CCN(C)CC3)cc12 [Example 1-41, (R)-2-methyl-3-(1-((4-methyl-7-((1-methylpiperidin-4-yl)amino)pyrido[3,4-d]pyridazin-1-yl)amino)ethyl)benzonitrile] | 4.49 | 272 |
| CCN1CCC(Nc2cc3c(N[C@H](C)c4cccc(C#N)c4C)nnc(C)c3cn2)CC1 [Example 1-42, (R)-3-(1-((7-((1-ethylpiperidin-4-yl)amino)-4-methylpyrido[3,4-d]pyridazin-1-yl)amino)ethyl)-2-methylbenzonitrile] | 7.37 | 257 |
| CCN1CCC(N(C)c2cc3c(N[C@H](C)c4cccc(C#N)c4C)nnc(C)c3cn2)CC1 [Example 1-43, (R)-3-(1-((7-((1-ethylpiperidin-4-yl)(methyl)amino)-4-methylpyrido[3,4-d]pyridazin-1-yl)amino)ethyl)-2-methylbenzonitrile] | 1.28 | 42.2 |
| CCN1CCN(c2cc3c(N[C@H](C)c4cccc(C#N)c4C)nnc(C)c3cn2)CC1=O [Example 1-44, (R)-3-(1-((7-(4-ethyl-3-oxopiperazin-1-yl)-4-methylpyrido[3,4-d]pyridazin-1-yl)amino)ethyl)-2-methylbenzonitrile] | 1.9 | 44.6 |
| Cc1c(C#N)cccc1[C@@H](C)Nc1nnc(C)c2cnc(N3CC[C@H](O)C3)cc12 [Example 1-46, 3-((R)-1-((7-((S)-3-hydroxypyrrolidin-1-yl)-4-methylpyrido[3,4-d]pyridazin-1-yl)amino)ethyl)-2-methylbenzonitrile] | 1.95 | 71.3 |
| Cc1c(C#N)cccc1[C@@H](C)Nc1nnc(C)c2cnc(N3CC[C@@H](O)C3)cc12 [Example 1-47, 3-((R)-1-((7-((R)-3-hydroxypyrrolidin-1-yl)-4-methylpyrido[3,4-d]pyridazin-1-yl)amino)ethyl)-2-methylbenzonitrile] | 1.33 | 50.3 |
| CO[C@H]1CCN(c2cc3c(N[C@H](C)c4cccc(C#N)c4C)nnc(C)c3cn2)C1 [Example 1-48, 3-((R)-1-((7-((S)-3-methoxypyrrolidin-1-yl)-4-methylpyrido[3,4-d]pyridazin-1-yl)amino)ethyl)-2-methylbenzonitrile] | 2.02 | 39.2 |
| CO[C@@H]1CCN(c2cc3c(N[C@H](C)c4cccc(C#N)c4C)nnc(C)c3cn2)C1 [Example 1-49, 3-((R)-1-((7-((R)-3-methoxypyrrolidin-1-yl)-4-methylpyrido[3,4-d]pyridazin-1-yl)amino)ethyl)-2-methylbenzonitrile] | 2.01 | 36 |
| Cc1c(C#N)cccc1[C@@H](C)Nc1nnc(C)c2cnc(N3CC[C@H](NS(C)(=O)=O)C3)cc12 [Example 1-50, N-((S)-1-(1-(((R)-1-(3-cyano-2-methylphenyl)ethyl)amino)-4-methylpyrido[3,4-d]pyridazin-7-yl)pyrrolidin-3-yl)methanesulfonamide] | 2.07 | 602 |
| Cc1c(C#N)cccc1[C@@H](C)Nc1nnc(C)c2cnc(N(C)[C@H]3CCNC3)cc12 [Example 1-51, 2-methyl-3-((R)-1-((4-methyl-7-(methyl((S)-pyrrolidin-3-yl)amino)pyrido[3,4-d]pyridazin-1-yl)amino)ethyl)benzonitrile] | 0.867 | 275 |
| Cc1c(C#N)cccc1[C@@H](C)Nc1nnc(C)c2cnc(N(C)[C@@H]3CCNC3)cc12 [Example 1-52, 2-methyl-3-((R)-1-((4-methyl-7-(methyl((R)-pyrrolidin-3-yl)amino)pyrido[3,4-d]pyridazin-1-yl)amino)ethyl)benzonitrile] | 1.11 | 457 |
| Cc1c(C#N)cccc1[C@@H](C)Nc1nnc(C)c2cnc(N(C)[C@H]3CCCNC3)cc12 [Example 1-53, 2-methyl-3-((R)-1-((4-methyl-7-(methyl((S)-piperidin-3-yl)amino)pyrido[3,4-d]pyridazin-1-yl)amino)ethyl)benzonitrile] | 0.853 | 210 |
| Cc1c(C#N)cccc1[C@@H](C)Nc1nnc(C)c2cnc(N(C)[C@@H]3CCCNC3)cc12 [Example 1-54, 2-methyl-3-((R)-1-((4-methyl-7-(methyl((R)-piperidin-3-yl)amino)pyrido[3,4-d]pyridazin-1-yl)amino)ethyl)benzonitrile] | 1.2 | 142 |
| Cc1c(C#N)cccc1[C@@H](C)Nc1nnc(C)c2cnc(N(C)C[C@@H]3CCCN3)cc12 [Example 1-55, 2-methyl-3-((R)-1-((4-methyl-7-(methyl(((S)-pyrrolidin-2-yl)methyl)amino)pyrido[3,4-d]pyridazin-1-yl)amino)ethyl)benzonitrile] | 2.18 | 290 |
| Cc1c(C#N)cccc1[C@@H](C)Nc1nnc(C)c2cnc(N(C)C[C@H]3CCCN3)cc12 [Example 1-56, 2-methyl-3-((R)-1-((4-methyl-7-(methyl(((R)-pyrrolidin-2-yl)methyl)amino)pyrido[3,4-d]pyridazin-1-yl)amino)ethyl)benzonitrile] | 2.15 | 246 |
